The values that follow come from US10065973B2, “Substituted aminothiazolopyrimidinedione for the treatment and prophylaxis of virus infection” (Hoffmann-La Roche Inc., priority 2016, dated 2018).

The target in this assay is human TLR7 (Homo sapiens (Human), UniProt Q9NYK1). The assay can be described thus: HEK293-Blue-hTLR-7 cells assay (SEAP reporter). The format is cell-based. Particulars: 20 hours incubation. The text has this:
HEK293-Blue-hTLR-7 Cells Assay: A stable HEK293-Blue-hTLR-7 cell line was purchased from InvivoGen (Cat.#: hkb-htlr7, San Diego, Calif., USA). These cells were designed for studying the stimulation of human TLR7 by monitoring the activation of NF-κB. A SEAP (secreted embryonic alkaline phosphatase) reporter gene was placed under the control of the IFN-β minimal promoter fused to five NF-κB and AP-1-binding sites. The SEAP was induced by activating NF-κB and AP-1 via stimulating HEK-Blue hTLR7 cells with TLR7 ligands. Therefore the reporter expression was regulated by the NF-κB promoter upon stimulation of human TLR7. The cell culture supernatant SEAP reporter activity was determined using QUANTI-Blue™ kit (Cat.#: rep-qb1, Invivogen, San Diego, Ca, USA) at a wavelength of 640 nm, a detection medium that turns purple to blue in the presence of alkaline phosphatase. HEK293-Blue-hTLR7 cells were incubated at a density of 250,000˜450,000 cells/mL in a volume of 180 μL in a 96-well plate in Dulbecco's Modified Eagle's medium (DMEM) containing 4.5 g/l glucose, 50 U/ml penicillin, […] streptomycin, […] Normocin, 2 mM L-glutamine, 10% (v/v) heat-inactivated fetal bovine serum for 24 h. Then the HEK293-Blue-hTLR-7 cells were incubated with addition of 20 μL test compound in a serial dilution in the presence of final DMSO at 1% and perform incubation under 37° C. in a CO2 incubator for 20 hours. Then 20 μL of the supernatant from each well was incubated with 180 μL Quanti-blue substrate solution at 37° C. for 1-3 hours and the absorbance was read at 620˜655 nm using a spectrophotometer.

Chain of human TLR7 (Q9NYK1 27-1049): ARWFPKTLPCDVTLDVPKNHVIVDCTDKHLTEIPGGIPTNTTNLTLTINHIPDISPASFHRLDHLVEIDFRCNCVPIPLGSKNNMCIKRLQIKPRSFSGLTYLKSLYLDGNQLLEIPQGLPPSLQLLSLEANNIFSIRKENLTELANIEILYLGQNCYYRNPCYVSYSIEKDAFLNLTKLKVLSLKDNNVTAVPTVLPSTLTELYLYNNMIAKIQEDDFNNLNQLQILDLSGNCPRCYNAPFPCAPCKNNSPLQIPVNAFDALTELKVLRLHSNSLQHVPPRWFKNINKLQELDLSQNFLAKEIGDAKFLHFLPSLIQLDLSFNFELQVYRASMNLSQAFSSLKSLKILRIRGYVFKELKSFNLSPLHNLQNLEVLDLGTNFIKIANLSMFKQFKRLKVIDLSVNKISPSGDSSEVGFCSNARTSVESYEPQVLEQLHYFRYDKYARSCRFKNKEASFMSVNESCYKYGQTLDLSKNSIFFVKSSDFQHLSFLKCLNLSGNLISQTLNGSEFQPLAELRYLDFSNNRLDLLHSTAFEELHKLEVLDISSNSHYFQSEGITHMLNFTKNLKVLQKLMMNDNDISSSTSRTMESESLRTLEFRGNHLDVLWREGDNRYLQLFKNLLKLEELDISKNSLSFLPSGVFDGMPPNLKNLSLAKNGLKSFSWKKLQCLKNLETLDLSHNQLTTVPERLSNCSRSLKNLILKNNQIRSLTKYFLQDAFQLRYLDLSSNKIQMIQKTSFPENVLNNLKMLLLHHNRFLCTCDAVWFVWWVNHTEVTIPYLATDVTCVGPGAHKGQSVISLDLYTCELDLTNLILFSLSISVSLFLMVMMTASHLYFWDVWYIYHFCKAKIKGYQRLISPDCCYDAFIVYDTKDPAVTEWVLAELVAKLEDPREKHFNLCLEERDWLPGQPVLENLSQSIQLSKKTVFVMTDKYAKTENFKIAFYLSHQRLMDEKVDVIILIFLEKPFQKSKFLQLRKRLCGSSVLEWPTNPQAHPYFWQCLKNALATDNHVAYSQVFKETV

`CC(O)[C@@H]1C[C@@H](CO)O[C@H]1n1c(=O)sc2c(=O)[nH]c(N)nc21` (single isomer, unassigned) [Example 1-B]: the EC50 was found to be 39 µM.

`Nc1nc2c(sc(=O)n2[C@@H]2O[C@H](CO)C[C@H]2C(O)C2CC2)c(=O)[nH]1` (single isomer, unassigned) [Example 2-A] came in with an EC50 of 156 µM.

As to `CCC(O)[C@@H]1C[C@@H](CO)O[C@H]1n1c(=O)sc2c(=O)[nH]c(N)nc21` (single isomer, unassigned) [Example 3-A], the EC50 worked out at 111 µM. This EC50 and that of the compound before are within 1.5-fold of each other.

As for `Nc1nc2c(sc(=O)n2[C@@H]2O[C@H](CO)C[C@H]2C(O)c2ccccc2)c(=O)[nH]1` (single isomer, unassigned) [Example 4-A], the response was half-maximal at 205 µM (EC50).

On to `COc1ccccc1C(O)[C@@H]1C[C@@H](CO)O[C@H]1n1c(=O)sc2c(=O)[nH]c(N)nc21` (single isomer, unassigned) [Example 5-A], for which the EC50 was 111 µM.

`Nc1nc2c(sc(=O)n2[C@@H]2O[C@H](CO)C[C@H]2C(O)c2ccccc2Cl)c(=O)[nH]1` (single isomer, unassigned) [Example 6-A] showed an EC50 of 79 µM.

`CC[C@H](O)[C@@H]1C[C@@H]([C@H](O)c2ccccc2)[C@H](n2c(=O)sc3c(=O)[nH]c(N)nc32)O1` (single isomer, unassigned) [Example 18-A] came in with an EC50 of 10.4 µM.

For `CC[C@H](O)[C@@H]1C[C@@H]([C@H](O)c2ccccc2)[C@H](n2c(=O)sc3c(=O)[nH]c(N)nc32)O1` (single isomer, unassigned) [Example 18-B], the EC50 is 9.7 µM.

Consider `Nc1nc2c(sc(=O)n2[C@@H]2O[C@H](CO)C[C@H]2[C@H](O)c2ccccn2)c(=O)[nH]1` [Example 7, 5-Amino-3-[(2R,3S,5S)-5-(hydroxymethyl)-3-[(S)-hydroxy(2-pyridyl)methyl]tetrahydrofuran-2-yl]-6H-thiazolo[4,5-d]pyrimidine-2,7-dione], for which a half-maximal response (EC50) required 225 µM.

With `CC(C)(O)[C@@H]1C[C@@H](CO)O[C@H]1n1c(=O)sc2c(=O)[nH]c(N)nc21` [Example 8, 5-Amino-3-[(2R,3S,5S)-5-(hydroxymethyl)-3-(1-hydroxy-1-methyl-ethyl)tetrahydrofuran-2-yl]-6H-thiazolo[4,5-d]pyrimidine-2,7-dione], the EC50 was 23 µM. This EC50 lies about 9.8-fold lower than the previous one.

The compound `CC[C@H](O)[C@@H]1C[C@@H]([C@@H](C)OC(C)=O)[C@H](n2c(=O)sc3c(=O)[nH]c(N)nc32)O1` [Example 9-A, [(1R)-1-[(2R,3S,5S)-2-(5-Amino-2,7-dioxo-6H-thiazolo[4,5-d]pyrimidin-3-yl)-5-[(1S)-1-hydroxypropyl]tetrahydrofuran-3-yl]ethyl] acetate] displayed an EC50 of 8.4 µM.

For the compound `CC[C@H](O)[C@@H]1C[C@@H]([C@H](C)OC(C)=O)[C@H](n2c(=O)sc3c(=O)[nH]c(N)nc32)O1` [Example 9-B, [(1S)-1-[(2R,3S,5S)-2-(5-amino-2,7-dioxo-6H-thiazolo[4,5-d]pyrimidin-3-yl)-5-[(1S)-1-hydroxypropyl]tetrahydrofuran-3-yl]ethyl] acetate], a half-maximal effect (EC50) was put at 9.3 µM. This EC50 and that of the compound before are within 1.5-fold of each other.

Take `CC[C@H](O)[C@@H]1C[C@@H]([C@@H](C)O)[C@H](n2c(=O)sc3c(=O)[nH]c(N)nc32)O1` [Example 10-A, 5-Amino-3-[(2R,3S,5S)-3-[(1R)-1-hydroxyethyl]-5-[(1S)-1-hydroxypropyl]tetrahydrofuran-2-yl]-6H-thiazolo[4,5-d]pyrimidine-2,7-dione]: the EC50 was 2.7 µM.

For the compound `CC[C@H](O)[C@@H]1C[C@@H]([C@H](C)O)[C@H](n2c(=O)sc3c(=O)[nH]c(N)nc32)O1` [Example 10-B, 5-amino-3-[(2R,3S,5S)-3-[(1S)-1-hydroxyethyl]-5-[(1S)-1-hydroxypropyl]tetrahydrofuran-2-yl]-6H-thiazolo[4,5-d]pyrimidine-2,7-dione], the EC50 is 35 µM. Against the preceding compound, the EC50 is about 13-fold higher.

Take `CCOC(=O)O[C@H](C)[C@@H]1C[C@@H]([C@@H](O)CC)O[C@H]1n1c(=O)sc2c(=O)[nH]c(N)nc21` [Example 11, [(1R)-1-[(2R,3S,5S)-2-(5-Amino-2,7-dioxo-6H-thiazolo[4,5-d]pyrimidin-3-yl)-5-[(1S)-1-hydroxypropyl]tetrahydrofuran-3-yl]ethyl] ethyl carbonate]: the EC50 was determined as 26 µM.

Take `CC[C@H](O)[C@@H]1C[C@@H]([C@@H](C)OC(=O)c2ccccc2)[C@H](n2c(=O)sc3c(=O)[nH]c(N)nc32)O1` [Example 12, [(1R)-1-[(2R,3S,5S)-2-(5-Amino-2,7-dioxo-6H-thiazolo[4,5-d]pyrimidin-3-yl)-5-[(1S)-1-hydroxypropyl]tetrahydrofuran-3-yl]ethyl] benzoate]: a half-maximal effect (EC50) was put at 6.5 µM. This EC50 is about 4-fold lower than that of the compound before.

In turn, `CC[C@H](O)[C@@H]1C[C@@H]([C@@H](C)OC)[C@H](n2c(=O)sc3c(=O)[nH]c(N)nc32)O1` [Example 13, 5-Amino-3-[(2R,3S,5S)-5-[(1S)-1-hydroxypropyl]-3-[(1R)-1-methoxyethyl]tetrahydrofuran-2-yl]-6H-thiazolo[4,5-d]pyrimidine-2,7-dione] returned an EC50 of 36 µM.

As to `CC[C@H](O)[C@@H]1C[C@@H]([C@@H](C)OCc2ccccc2)[C@H](n2c(=O)sc3c(=O)[nH]c(N)nc32)O1` [Example 14, 5-Amino-3-[(2R,3S,5S)-3-[(1R)-1-benzyloxyethyl]-5-[(1S)-1-hydroxypropyl]tetrahydrofuran-2-yl]-6H-thiazolo[4,5-d]pyrimidine-2,7-dione], a half-maximal effect (EC50) was put at 60 µM.

`C=CCO[C@H](C)[C@@H]1C[C@@H]([C@@H](O)CC)O[C@H]1n1c(=O)sc2c(=O)[nH]c(N)nc21` [Example 15, 3-[(2R,3S,5S)-3-[(1R)-1-Allyloxyethyl]-5-[(1S)-1-hydroxypropyl]tetrahydrofuran-2-yl]-5-amino-6H-thiazolo[4,5-d]pyrimidine-2,7-dione]: the EC50 was determined as 68 µM.

In turn, `CC[C@H](O)[C@@H]1C[C@@H]([C@H](C)OC)[C@H](n2c(=O)sc3c(=O)[nH]c(N)nc32)O1` [Example 16, 5-Amino-3-[(2R,3S,5S)-5-[(1S)-1-hydroxypropyl]-3-[(1S)-1-methoxyethyl]tetrahydrofuran-2-yl]-6H-thiazolo[4,5-d]pyrimidine-2,7-dione] had an EC50 of 35 µM.

For `CC[C@H](OC(C)=O)[C@@H]1C[C@@H]([C@@H](C)O)[C@H](n2c(=O)sc3c(=O)[nH]c(N)nc32)O1` [Example 17, [(1S)-1-[(2S,4S,5R)-5-(5-Amino-2,7-dioxo-6H-thiazolo[4,5-d]pyrimidin-3-yl)-4-[(1R)-1-hydroxyethyl]tetrahydrofuran-2-yl]propyl] acetate], the EC50 came to 15 µM. This EC50 lies about 2.3-fold lower than the previous one.

Regarding `CC[C@H](O)[C@@H]1C[C@@H](C(C)(C)OC(C)=O)[C@H](n2c(=O)sc3c(=O)[nH]c(N)nc32)O1` [Example 19, [1-[(2R,3S,5S)-2-(5-Amino-2,7-dioxo-6H-thiazolo[4,5-d]pyrimidin-3-yl)-5-[(1S)-1-hydroxypropyl]tetrahydrofuran-3-yl]-1-methyl-ethyl] acetate], the response was half-maximal at 19 µM (EC50). The EC50 values of the last two compounds are within 1.5-fold of each other.

For `CC[C@H](O)[C@@H]1C[C@@H](C(C)(C)O)[C@H](n2c(=O)sc3c(=O)[nH]c(N)nc32)O1` [Example 20, 5-Amino-3-[(2R,3S,5S)-3-(1-hydroxy-1-methyl-ethyl)-5-[(1S)-1-hydroxypropyl]tetrahydrofuran-2-yl]-6H-thiazolo[4,5-d]pyrimidine-2,7-dione], the EC50 was found to be 3 µM.

The term EC50 denotes the concentration at which the effect is half-maximal. High values mean lower potency in that assay, low ones higher potency in that assay.
